From PMC5146859, “Phase 1/2 study of pacritinib, a next generation JAK2/FLT3 inhibitor, in myelofibrosis or other myeloid malignancies” (Journal of Hematology & Oncology, 2016)

Test system: patients with MF
Assay: Phase 2 safety: adverse events, serious adverse events and deaths
Assay type: in vivo, human
Description: At screening/baseline, patients underwent a medical history, physical examination, vital sign assessment, ECOG PS assessment, electrocardiogram, and assessment of hematologic parameters and blood chemistry. Hematology/blood chemistry, physical examinations, and vital sign assessments were performed throughout treatment. Toxicity was assessed using the National Cancer Institute Common Terminology Criteria for Adverse Events (NCIC-CTCAE), version 3.0, with relationship to treatment assigned by the investigator and were recorded from the first dose of pacritinib until 30 days after the last dose. Bone marrow biopsy and/or aspirate samples were drawn at baseline, on day 1 of cycle 4 and cycle 10, as clinically indicated, and at the termination visit. Disease response and progression were determined using the relevant International Working Group (IWG) criteria.
The efficacy-evaluable population included those patients with a baseline and corresponding follow-up value. The safety population included all enrolled patients who received ≥1 dose of pacritinib.

SMILES: C1=C/COCc2cc(ccc2OCCN2CCCC2)Nc2nccc(n2)-c2cccc(c2)COC/1 [pacritinib, 11-(2-pyrrolidin-1-yl-ethoxy)-14,19-dioxa-5,7,26-triaza-tetracyclo[19.3.1.1(2,6). 1(8,12)]heptacosa-1(25),2(26),3,5,8,10,12(27),16,21,23-decaene]
- Treatment-emergent AE: Vomiting (phase 2, n = 31, Grade 1): 7 (22.6) n (%)
- Treatment-emergent AE: Weight decreased (phase 2, n = 31, Grade 1): 4 (12.9) n (%)
- Treatment-emergent AE: Abdominal pain (phase 2, n = 31, Grade 2): 3 (9.7) n (%)
- Treatment-emergent AE: Anemia (phase 2, n = 31, Grade 2): 1 (3.2) n (%)
- Treatment-emergent AE: Asthenia (phase 2, n = 31, Grade 2): 1 (3.2) n (%)
- Treatment-emergent AE: Bone pain (phase 2, n = 31, Grade 2): 1 (3.2) n (%)
- Treatment-emergent AE: Cardiac murmur (phase 2, n = 31, Grade 2): 4 (12.9) n (%)
- Treatment-emergent AE: Constipation (phase 2, n = 31, Grade 2): 0 n (%)
- Treatment-emergent AE: Diarrhea (phase 2, n = 31, Grade 2): 9 (29.0) n (%)
- Treatment-emergent AE: Dyspnea (phase 2, n = 31, Grade 2): 0 n (%)
- Treatment-emergent AE: Edema peripheral (phase 2, n = 31, Grade 2): 5 (16.1) n (%)
- Treatment-emergent AE: Fatigue (phase 2, n = 31, Grade 2): 11 (35.5) n (%)
- Treatment-emergent AE: Hyperuricemia (phase 2, n = 31, Grade 2): 0 n (%)
- Treatment-emergent AE: Insomnia (phase 2, n = 31, Grade 2): 2 (6.5) n (%)
- Treatment-emergent AE: Nausea (phase 2, n = 31, Grade 2): 6 (19.4) n (%)
- Treatment-emergent AE: Night sweats (phase 2, n = 31, Grade 2): 3 (9.7) n (%)
- Treatment-emergent AE: Pain in extremity (phase 2, n = 31, Grade 2): 2 (6.5) n (%)
- Treatment-emergent AE: Pruritus (phase 2, n = 31, Grade 2): 4 (12.9) n (%)
- Treatment-emergent AE: Pyrexia (phase 2, n = 31, Grade 2): 0 n (%)
- Treatment-emergent AE: Rash (phase 2, n = 31, Grade 2): 1 (3.2) n (%)
- Treatment-emergent AE: Upper respiratory tract infection (phase 2, n = 31, Grade 2): 1 (3.2) n (%)
- Treatment-emergent AE: Vomiting (phase 2, n = 31, Grade 2): 3 (9.7) n (%)
- Treatment-emergent AE: Weight decreased (phase 2, n = 31, Grade 2): 0 n (%)
- Treatment-emergent AE: Abdominal pain (phase 2, n = 31, Grade 3): 3 (9.7) n (%)
- Treatment-emergent AE: Anemia (phase 2, n = 31, Grade 3): 3 (9.7) n (%)
- Treatment-emergent AE: Asthenia (phase 2, n = 31, Grade 3): 0 n (%)
- Treatment-emergent AE: Bone pain (phase 2, n = 31, Grade 3): 4 (12.9) n (%)
- Treatment-emergent AE: Cardiac murmur (phase 2, n = 31, Grade 3): 0 n (%)
- Treatment-emergent AE: Constipation (phase 2, n = 31, Grade 3): 0 n (%)
- Treatment-emergent AE: Diarrhea (phase 2, n = 31, Grade 3): 5 (16.1) n (%)
- Treatment-emergent AE: Dyspnea (phase 2, n = 31, Grade 3): 1 (3.2) n (%)
- Treatment-emergent AE: Edema peripheral (phase 2, n = 31, Grade 3): 1 (3.2) n (%)
- Treatment-emergent AE: Fatigue (phase 2, n = 31, Grade 3): 4 (12.9) n (%)
- Treatment-emergent AE: Hyperuricemia (phase 2, n = 31, Grade 3): 0 n (%)
- Treatment-emergent AE: Insomnia (phase 2, n = 31, Grade 3): 0 n (%)
- Treatment-emergent AE: Nausea (phase 2, n = 31, Grade 3): 1 (3.2) n (%)
- Treatment-emergent AE: Night sweats (phase 2, n = 31, Grade 3): 0 n (%)
- Treatment-emergent AE: Pain in extremity (phase 2, n = 31, Grade 3): 0 n (%)
- Treatment-emergent AE: Pruritus (phase 2, n = 31, Grade 3): 1 (3.2) n (%)
- Treatment-emergent AE: Pyrexia (phase 2, n = 31, Grade 3): 0 n (%)
- Treatment-emergent AE: Rash (phase 2, n = 31, Grade 3): 1 (3.2) n (%)
- Treatment-emergent AE: Upper respiratory tract infection (phase 2, n = 31, Grade 3): 0 n (%)
- Treatment-emergent AE: Vomiting (phase 2, n = 31, Grade 3): 1 (3.2) n (%)
- Treatment-emergent AE: Weight decreased (phase 2, n = 31, Grade 3): 0 n (%)
- Treatment-emergent AE: Abdominal pain (phase 2, n = 31, Grade 4): 0 n (%)
- Treatment-emergent AE: Anemia (phase 2, n = 31, Grade 4): 2 (6.5) n (%)
- Treatment-emergent AE: Asthenia (phase 2, n = 31, Grade 4): 0 n (%)
- Treatment-emergent AE: Bone pain (phase 2, n = 31, Grade 4): 0 n (%)
- Treatment-emergent AE: Cardiac murmur (phase 2, n = 31, Grade 4): 0 n (%)
- Treatment-emergent AE: Constipation (phase 2, n = 31, Grade 4): 0 n (%)
- Treatment-emergent AE: Diarrhea (phase 2, n = 31, Grade 4): 0 n (%)
- Treatment-emergent AE: Dyspnea (phase 2, n = 31, Grade 4): 0 n (%)
- Treatment-emergent AE: Edema peripheral (phase 2, n = 31, Grade 4): 0 n (%)
- Treatment-emergent AE: Fatigue (phase 2, n = 31, Grade 4): 1 (3.2) n (%)
- Treatment-emergent AE: Hyperuricemia (phase 2, n = 31, Grade 4): 2 (6.5) n (%)
- Treatment-emergent AE: Insomnia (phase 2, n = 31, Grade 4): 0 n (%)
- Treatment-emergent AE: Nausea (phase 2, n = 31, Grade 4): 0 n (%)
- Treatment-emergent AE: Night sweats (phase 2, n = 31, Grade 4): 0 n (%)
- Treatment-emergent AE: Pain in extremity (phase 2, n = 31, Grade 4): 1 (3.2) n (%)
- Treatment-emergent AE: Pruritus (phase 2, n = 31, Grade 4): 0 n (%)
- Treatment-emergent AE: Pyrexia (phase 2, n = 31, Grade 4): 0 n (%)
- Treatment-emergent AE: Rash (phase 2, n = 31, Grade 4): 0 n (%)
- Treatment-emergent AE: Upper respiratory tract infection (phase 2, n = 31, Grade 4): 0 n (%)
- Treatment-emergent AE: Vomiting (phase 2, n = 31, Grade 4): 0 n (%)
- Treatment-emergent AE: Weight decreased (phase 2, n = 31, Grade 4): 0 n (%)
- Patients who died (phase 2, of 33 enrolled): 27.3%
